Where two headings read alike, the source gives them in different places.
Tests used:
NIH:OVCAR-3 cells = test: Cell viability of KIF18a-sensitive cell lines, NIH:OVCAR-3 (Cell Titre-Glo, 7 days); assay type: cell-based; conditions: NIH-OVCAR3 cells, 7 days, Cell Titre-Glo, read-out: NIH-OVCAR3 IC50
Procedure: (§1) Cell Viability of KIF18a-Sensitive Cell Lines
(§2) Cell lines were seeded as follows 24 hours before compound treatment: HCC15 (Korean Cell Line Bank) 600 cell/well, 95 μL of RPMI-1640 media supplemented with 100 units/mL penicillin, 100 units/mL streptomycin and 10% FBS; NIH:OVCAR-3 (ATCC), 1000 cell/well, 95 μL of RPMI-1640 media supplemented with 100 units/mL penicillin, 100 units/mL streptomycin, 0.01 mg/mL bovine insulin, and 20% FBS; JIMT-1 (Addexbio) 1000 cell/well, 95 μL of DMEM media supplemented with 100 units/mL penicillin, 100 units/mL streptomycin, and 10% FBS.
(§3) Test compounds were added to cells in a 20× dilution scheme by adding 5 μL of serially diluted compound to the plate, and the treated cells were incubated for an additional 7 days in a 37° C., 5% CO2 incubator. DMSO was used as the negative control (0% effect), and wells omitting cells were used as the positive control (100% effect). The cells were incubated for seven days, and cell viability determined via the Promega Cell Titre-Glo® Assay kit. Luminescence units were converted to ATP concentrations via an ATP standard curve (10 point, 2-fold dilution from 5 uM). % Inhibition was calculated for each well as: ([max−min]−[test−min])/[max−min]. IC50 values were calculated from concentration vs. % Inhibition data via a four-parameter variable slope model.

HCC15 cells = test: Cell viability of KIF18a-sensitive cell lines, HCC15 (Cell Titre-Glo, 7 days); assay type: cell-based; conditions: HCC-15 cells, 7 days, Cell Titre-Glo, read-out: HCC-15 IC50
Procedure: as §1, §2, §3

[1] = molecular target: KIF18a-Microtubule Complex (Homo sapiens (Human), UniProt Q8NI77); test: Binding kinetics to KIF18a-microtubule complex (global progress curve analysis); conditions: for koff (off-rate from binding kinetics assay) / kon (on-rate from binding kinetics assay): global progress curve analysis; for Ki: read-out: KI (determined from binding kinetic assay koff/kon), koff/kon; for koff: read-out: koff (off-rate from binding kinetics assay)
In short: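 kon and koff determined by global progress curve analysis, with ADP formation measured by ADP-Glo. Time- and dose-dependent progress curves were globally fitted to a Michaelis-Menten model with one-step slow-binding inhibition.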

JIMT-1 cells = test: Cell viability of KIF18a-sensitive cell lines, JIMT-1 (Cell Titre-Glo, 7 days); assay type: cell-based; conditions: JIMT-1 cells, 7 days, Cell Titre-Glo, read-out: JIMT-1 IC50
Procedure: as §1, §2, §3

hKIF18A (1-374) = hKIF18A (1-374) (Homo sapiens (Human), UniProt Q8NI77); test: Inhibition of KIF18A microtubule-dependent ATPase activity (ADP-Glo); conditions: KIF18A microtubule-dependent ATPase activity, biochemical assay
Sequence of hKIF18A (1-374) (Q8NI77 whole entry, looked up): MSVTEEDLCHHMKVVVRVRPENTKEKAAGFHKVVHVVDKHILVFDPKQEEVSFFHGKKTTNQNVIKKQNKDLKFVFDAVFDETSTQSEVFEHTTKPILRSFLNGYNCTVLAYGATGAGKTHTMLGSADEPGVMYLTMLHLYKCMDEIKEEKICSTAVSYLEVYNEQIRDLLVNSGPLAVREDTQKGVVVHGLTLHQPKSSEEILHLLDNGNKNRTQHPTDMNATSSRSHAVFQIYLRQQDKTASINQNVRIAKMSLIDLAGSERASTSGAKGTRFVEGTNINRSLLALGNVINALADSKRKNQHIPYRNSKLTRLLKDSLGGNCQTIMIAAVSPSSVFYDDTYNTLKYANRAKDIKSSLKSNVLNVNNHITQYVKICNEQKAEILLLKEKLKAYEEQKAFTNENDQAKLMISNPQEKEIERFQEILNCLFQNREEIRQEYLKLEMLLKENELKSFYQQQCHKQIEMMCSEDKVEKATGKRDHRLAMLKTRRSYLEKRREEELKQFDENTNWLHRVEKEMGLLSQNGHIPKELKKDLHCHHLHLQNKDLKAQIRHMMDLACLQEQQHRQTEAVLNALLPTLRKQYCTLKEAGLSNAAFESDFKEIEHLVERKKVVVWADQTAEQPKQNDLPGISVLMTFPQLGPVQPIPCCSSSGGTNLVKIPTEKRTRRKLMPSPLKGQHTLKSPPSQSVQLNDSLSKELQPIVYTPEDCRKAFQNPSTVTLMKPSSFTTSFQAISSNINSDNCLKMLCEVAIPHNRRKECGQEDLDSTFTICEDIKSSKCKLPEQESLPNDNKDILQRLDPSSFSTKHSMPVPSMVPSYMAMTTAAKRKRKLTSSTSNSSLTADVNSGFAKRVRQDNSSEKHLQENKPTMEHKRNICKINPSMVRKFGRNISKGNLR
Sequence of hKIF18A (1-374) (Q2XVP4 whole entry partner, looked up): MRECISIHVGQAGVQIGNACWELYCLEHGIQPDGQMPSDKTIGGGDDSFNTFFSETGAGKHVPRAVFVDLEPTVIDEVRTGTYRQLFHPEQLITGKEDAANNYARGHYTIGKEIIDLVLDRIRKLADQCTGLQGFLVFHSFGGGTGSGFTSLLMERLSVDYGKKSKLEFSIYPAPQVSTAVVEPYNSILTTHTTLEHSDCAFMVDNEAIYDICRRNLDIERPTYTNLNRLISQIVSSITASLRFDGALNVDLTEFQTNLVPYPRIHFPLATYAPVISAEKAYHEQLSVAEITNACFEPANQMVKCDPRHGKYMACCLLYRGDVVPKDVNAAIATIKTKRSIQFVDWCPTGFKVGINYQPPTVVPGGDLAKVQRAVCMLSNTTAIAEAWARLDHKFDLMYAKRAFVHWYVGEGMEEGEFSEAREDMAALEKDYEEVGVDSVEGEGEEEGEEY
Sequence of hKIF18A (1-374) (P02554 whole entry partner, looked up): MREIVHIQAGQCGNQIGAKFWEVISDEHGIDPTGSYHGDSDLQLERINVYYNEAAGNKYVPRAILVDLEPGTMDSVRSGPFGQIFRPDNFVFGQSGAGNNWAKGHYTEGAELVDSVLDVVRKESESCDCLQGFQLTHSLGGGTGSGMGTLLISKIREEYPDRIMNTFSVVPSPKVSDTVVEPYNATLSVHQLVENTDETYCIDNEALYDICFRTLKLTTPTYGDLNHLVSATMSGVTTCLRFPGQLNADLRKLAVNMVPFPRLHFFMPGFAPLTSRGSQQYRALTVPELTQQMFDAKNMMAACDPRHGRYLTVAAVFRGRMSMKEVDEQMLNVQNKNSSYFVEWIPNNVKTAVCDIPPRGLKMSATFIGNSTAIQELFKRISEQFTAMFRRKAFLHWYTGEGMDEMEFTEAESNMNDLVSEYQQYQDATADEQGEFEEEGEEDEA

Sequence of KIF18a-Microtubule Complex (Q8NI77 whole entry, looked up): as the sequence (Q8NI77 whole entry, looked up) above
Sequence of KIF18a-Microtubule Complex (Q2XVP4 whole entry partner, looked up): as the sequence (Q2XVP4 whole entry partner, looked up) above
Sequence of KIF18a-Microtubule Complex (P02554 whole entry partner, looked up): as the sequence (P02554 whole entry partner, looked up) above

Row | kon (on-rate from binding kinetics assay) [1] | disc. t1/2 (dissociation half-life ln(2)/koff) [1] | Ki [1] | IC50 (hKIF18A (1-374)) | IC50 (NIH:OVCAR-3 cells; Homo sapiens, OVCAR-3, 168 h) | IC50 (HCC15 cells; HCC15, 168 h) | koff [1] | SMILES | IC50 (NIH:OVCAR-3 cells) | IC50 (HCC15 cells) | koff (off-rate from binding kinetics assay) [1] | IC50 (JIMT-1 cells) | IC50 (JIMT-1 cells; Homo sapiens, 168 h)
1 | 10300 M⁻¹ s⁻¹ | 49 h | 0.38 nM | 17 nM | 10 nM | 11 nM | 3.89e-06 s⁻¹ | COc1ccc(C(=O)N2CC3(CCC4(CC4)CC3)c3cc(NS(C)(=O)=O)ccc32)cc1S(=O)(=O)NC(C)(C)C [Compound 297, N-(tert-butyl)-2-methoxy-5-(5″-(methylsulfonamido)dispiro[cyclopropane-1,1′-cyclohexane-4′,3″-indoline]-1″-carbonyl)benzenesulfonamide] |  |  |  |  | 9.8 nM
2 | 7500 M⁻¹ s⁻¹ | 45 h | 0.57 nM | 18 nM | 20 nM | 21 nM | 4.17e-06 s⁻¹ | CCS(=O)(=O)Nc1ccc2c(c1)C1(CCC3(CC3)CC1)CN2C(=O)c1cccc(S(=O)(=O)N2CC3(CCO3)C2)c1 [Compound 320, N-(1″-(3-((1-oxa-6-azaspiro[3.3]heptan-6-yl)sulfonyl)benzoyl)dispiro[cyclopropane-1,1′-cyclohexane-4′,3″-indolin]-5″- yl)ethanesulfonamide] |  |  |  |  | 14 nM
3 | 10600 M⁻¹ s⁻¹ | 33 h | 0.54 nM | 20 nM | 8 nM | 7.5 nM | 5.83e-06 s⁻¹ | CC(C)(C)NS(=O)(=O)c1cccc(C(=O)N2CC3(CCC4(CC4)CC3)c3cc(NS(=O)(=O)C4CC4)ccc32)c1 [Compound 160, N-(tert-butyl)-3-(5″- (cyclopropanesulfonamido)dispiro [cyclopropane-1,1′-cyclohexane-4′,3″- indoline]-1″- carbonyl)benzenesulfonamide] |  |  |  |  | 5.4 nM
4 | 16900 M⁻¹ s⁻¹ | 39 h | 0.29 nM | 6.2 nM | 13 nM | 11 nM | 5e-06 s⁻¹ | O=C(c1cccc(S(=O)(=O)C2CCCC2)c1)N1CC2(CCC3(CC3)CC2)c2cc(NS(=O)(=O)CCO)ccc21 [Compound 229, N-(1″-(3-(cyclopentylsulfonyl)benzoyl)dispiro [cyclopropane-1,1′-cyclohexane-4′,3″- indolin]-5″-yl)-2-hydroxyethane-1-sulfonamide] |  |  |  |  | 11 nM
5 | 10300 M⁻¹ s⁻¹ | 5.7 h | 3.3 nM | 21 nM | 40 nM | 43 nM | 3.33e-05 s⁻¹ | CS(=O)(=O)Nc1ccc2c(c1)C1(CCC3(CC3)CC1)CN2C(=O)c1cccc(S(=O)(=O)C2CC(F)(F)C2)c1 [Compound 322, N-(1″-(3-((3,3-difluorocyclobutyl)sulfonyl)benzoyl)dispiro[cyclopropane-1,1′-cyclohexane-4′,3″-indolin]-5″- yl)methanesulfonamide] |  |  |  |  | 32 nM
6 | 14400 M⁻¹ s⁻¹ | 21 h | 0.64 nM | 10 nM | 410 nM | 510 nM | 9.17e-06 s⁻¹ | CS(=O)(=O)Nc1ccc2c(c1)C1(CCC3(CC3)CC1)CN2C(=O)c1cccc(S(=O)(=O)NC2CC(F)(F)C2)c1 [Compound 192, N-(3,3-difluorocyclobutyl)-3-(5″- (methylsulfonamido)dispiro[cyclopropane-1,1′-cyclohexane-4′,3″-indoline]-1″-carbonyl)benzenesulfonamide] |  |  |  |  | 500 nM

Row | SMILES | kon (on-rate from binding kinetics assay) [1] | disc. t1/2 (dissociation half-life ln(2)/koff) [1] | Ki [1] | IC50 (hKIF18A (1-374)) | IC50 (NIH:OVCAR-3 cells; Homo sapiens, OVCAR-3, 168 h) | IC50 (HCC15 cells; HCC15, 168 h) | koff [1] | IC50 (NIH:OVCAR-3 cells) | IC50 (HCC15 cells) | koff (off-rate from binding kinetics assay) [1] | IC50 (JIMT-1 cells) | IC50 (JIMT-1 cells; Homo sapiens, 168 h)
7 | CCS(=O)(=O)Nc1ccc2c(c1)[C@]1(CC[C@@H](C(F)F)CC1)CN2C(=O)c1cccc(S(=O)(=O)NC(C)(C)C)c1 [Compound 333a] | 7780 M⁻¹ s⁻¹ | 53 h | 0.47 nM | 18 nM |  |  |  | 17 nM | 22 nM | 3.61e-06 s⁻¹ | 24 nM | 
8 | CS(=O)(=O)Nc1ccc2c(c1)C1(CCC3(CC3)CC1)CN2C(=O)c1cccc(C(O)C2CCCC2)c1 (single isomer, unassigned) [Compound 165a] | 11900 M⁻¹ s⁻¹ | 3.8 h | 4.2 nM | 8.8 nM |  |  |  | 59 nM | 68 nM | 5e-05 s⁻¹ | 45 nM | 
9 | CS(=O)(=O)Nc1ccc2c(c1)C1(CCC3(CC3)CC1)CN2C(=O)c1cccc([C@H](O)CC2CCC2)c1 (single isomer, unassigned) [Compound 305b] | 106000 M⁻¹ s⁻¹ | 0.49 h | 3.7 nM | 6.8 nM |  |  |  | 69 nM | 60 nM | 0.000389 s⁻¹ | 40 nM | 
10 | CS(=O)(=O)Nc1ccc2c(c1)C1(CCC3(CC3)CC1)CN2C(=O)c1cccc([C@@H](O)CC2CCC2)c1 (single isomer, unassigned) [Compound 305a] | 97200 M⁻¹ s⁻¹ | 0.56 h | 3.5 nM | 8.1 nM |  |  |  | 90 nM | 74 nM | 0.000361 s⁻¹ | 52 nM | 
11 | CS(=O)(=O)Nc1ccc2c(c1)C1(CCC3(CC3)CC1)CN2C(=O)c1cccc(C(O)C2CCCC2)c1 (single isomer, unassigned) [Compound 165b] | 11900 M⁻¹ s⁻¹ | 4.2 h | 3.9 nM | 10 nM |  |  |  | 57 nM | 46 nM | 4.72e-05 s⁻¹ | 38 nM | 

Reference: patent US12084420B2, “Indoline compounds for inhibiting KIF18A” (Volastra Therapeutics, Inc., priority 2021, dated 2024)
